Experimental data from BindingDB's records for doi:10.1016/j.bmc.2009.04.013 (Biocryst Pharmaceuticals, 2009).

Molecular target: T1, Coagulation factor VII (Homo sapiens, UniProt P08709)
T1 sequence (P08709 whole entry): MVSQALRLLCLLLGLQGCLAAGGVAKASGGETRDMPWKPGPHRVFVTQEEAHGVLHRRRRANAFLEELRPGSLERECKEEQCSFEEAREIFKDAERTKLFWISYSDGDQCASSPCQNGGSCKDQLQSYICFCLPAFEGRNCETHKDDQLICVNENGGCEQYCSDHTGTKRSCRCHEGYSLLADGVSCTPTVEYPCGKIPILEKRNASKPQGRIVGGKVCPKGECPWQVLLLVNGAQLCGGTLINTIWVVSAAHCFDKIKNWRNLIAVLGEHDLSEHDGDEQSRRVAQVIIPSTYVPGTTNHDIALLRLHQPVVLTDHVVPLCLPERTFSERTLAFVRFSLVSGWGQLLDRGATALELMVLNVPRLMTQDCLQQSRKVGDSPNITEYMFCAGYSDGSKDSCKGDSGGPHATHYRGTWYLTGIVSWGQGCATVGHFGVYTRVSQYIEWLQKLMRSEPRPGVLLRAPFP
Assay: TF-FVIIa Enzyme Inhibition Assay
Conditions: 25 °C

IC50 | SMILES
5720 nM | N=C(N)c1ccc(NC(=O)c2ccccc2-c2ccccc2C(=O)O)cc1 [substituted biphenyl derivative, 9]

Same assay, conditions: pH 7.2; 23 °C

IC50 | SMILES
52 nM | CC(C)CNC(=O)c1ccc(-c2ccc(/C=C\CO)cc2C(=O)Nc2ccc(C(=N)N)cc2)c(C(=O)O)c1 [substituted biphenyl derivative, 36m]

Molecular target: T2, Serine protease 1 (Bos taurus, UniProt P00760)
T2 sequence (P00760 whole entry): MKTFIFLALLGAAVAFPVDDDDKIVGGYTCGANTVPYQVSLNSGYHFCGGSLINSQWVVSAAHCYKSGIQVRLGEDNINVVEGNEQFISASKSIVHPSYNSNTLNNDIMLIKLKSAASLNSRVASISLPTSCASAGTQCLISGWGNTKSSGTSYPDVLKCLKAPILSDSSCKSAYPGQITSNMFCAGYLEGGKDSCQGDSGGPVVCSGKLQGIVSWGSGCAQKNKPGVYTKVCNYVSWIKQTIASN
Assay: TF-FVIIa Enzyme Inhibition Assay
Conditions: 25 °C

IC50 | SMILES
950 nM | CC(C)=CCc1ccc(-c2ccc(C(=O)NCC(C)C)cc2C(=O)O)c(C(=O)Nc2ccc(C(=N)N)cc2)c1 [substituted biphenyl derivative, 36k]
570 nM | CC(C)CNC(=O)c1ccc(-c2ccc(Cc3ccccc3)cc2C(=O)Nc2ccc(C(=N)N)cc2)c(C(=O)O)c1 [substituted biphenyl derivative, 36w]
3020 nM | CC(C)CNC(=O)c1ccc(-c2ccc(-c3cccnc3)cc2C(=O)Nc2ccc(C(=N)N)cc2)c(C(=O)O)c1 [substituted biphenyl derivative, 36y]
2190 nM | C=C(CCO)c1ccc(-c2ccc(C(=O)NCC(C)C)cc2C(=O)O)c(C(=O)Nc2ccc(C(=N)N)cc2)c1 [substituted biphenyl derivative, 36o]
1770 nM | CC(C)CNC(=O)c1ccc(-c2ccc(/C=C\CO)cc2C(=O)Nc2ccc(C(=N)N)cc2)c(C(=O)O)c1 [substituted biphenyl derivative, 36m]
1210 nM | CC(C)CNC(=O)c1ccc(-c2ccc(-c3ccncc3)cc2C(=O)Nc2ccc(C(=N)N)cc2)c(C(=O)O)c1 [substituted biphenyl derivative, 36x]
240 nM | CC(C)CNC(=O)c1ccc(-c2ccc(-c3cccs3)cc2C(=O)Nc2ccc(C(=N)N)cc2)c(C(=O)O)c1 [substituted biphenyl derivative, 36z]
1340 nM | C/C=C\Cc1ccc(-c2ccc(C(=O)NCC(C)C)cc2C(=O)O)c(C(=O)Nc2ccc(C(=N)N)cc2)c1 [substituted biphenyl derivative, 36j]
22100 nM | CC(C)CNC(=O)c1ccc(-c2ccc(C(O)CO)cc2C(=O)Nc2ccc(C(=N)N)cc2)c(C(=O)O)c1 (stereo not drawn) [substituted biphenyl derivative, 36s]
3540 nM | C=C(CO)c1ccc(-c2ccc(C(=O)NCC(C)C)cc2C(=O)O)c(C(=O)Nc2ccc(C(=N)N)cc2)c1 [substituted biphenyl derivative, 36n]
420 nM | CC(C)CNC(=O)c1ccc(-c2ccc(-c3ccccc3)cc2C(=O)Nc2ccc(C(=N)N)cc2)c(C(=O)O)c1 [substituted biphenyl derivative, 36v]
560 nM | C=C=Cc1ccc(-c2ccc(C(=O)NCC(C)C)cc2C(=O)O)c(C(=O)Nc2ccc(C(=N)N)cc2)c1 [substituted biphenyl derivative, 36h]
400 nM | CC(C)CNC(=O)c1ccc(-c2ccc(C#CCCO)cc2C(=O)Nc2ccc(C(=N)N)cc2)c(C(=O)O)c1 [substituted biphenyl derivative, 36q]
530 nM | C=C(C)c1ccc(-c2ccc(C(=O)NCC(C)C)cc2C(=O)O)c(C(=O)Nc2ccc(C(=N)N)cc2)c1 [substituted biphenyl derivative, 36g]
1660 nM | CC#Cc1ccc(-c2ccc(C(=O)NCC(C)C)cc2C(=O)O)c(C(=O)Nc2ccc(C(=N)N)cc2)c1 [substituted biphenyl derivative, 36i]

Further lines, the compound ahead of its results:

SMILES | IC50
CC(C)CNC(=O)c1ccc(-c2ccc(-c3cocc3CO)cc2C(=O)Nc2ccc(C(=N)N)cc2)c(C(=O)O)c1 [substituted biphenyl derivative, 36ap] | 2290 nM
CC(C)CNC(=O)c1ccc(-c2ccc(-c3cscc3CN=[N+]=[N-])cc2C(=O)Nc2ccc(C(=N)N)cc2)c(C(=O)O)c1 [substituted biphenyl derivative, 36am] | 1180 nM
CC(C)CNC(=O)c1ccc(-c2ccc(-c3ccsc3CO)cc2C(=O)Nc2ccc(C(=N)N)cc2)c(C(=O)O)c1 [substituted biphenyl derivative, 36ai] | 3040 nM
CC(C)CNC(=O)c1ccc(-c2ccc(-c3cscc3CO)cc2C(=O)Nc2ccc(C(=N)N)cc2)c(C(=O)O)c1 [substituted biphenyl derivative, 36ak] | 510 nM
CC(C)CNC(=O)c1ccc(-c2ccc(O)cc2C(=O)Nc2ccc(C(=N)N)cc2)c(C(=O)O)c1 [substituted biphenyl derivative, 36a] | 390 nM
CC(C)CNC(=O)c1ccc(-c2ccc(-c3ccc[nH]3)cc2C(=O)Nc2ccc(C(=N)N)cc2)c(C(=O)O)c1 [substituted biphenyl derivative, 36ad] | 430 nM
C#Cc1ccc(-c2ccc(C(=O)NCC(C)C)cc2C(=O)O)c(C(=O)Nc2ccc(C(=N)N)cc2)c1 [substituted biphenyl derivative, 36f] | 2870 nM
CC(C)CNC(=O)c1ccc(-c2ccc(-c3cscc3CN)cc2C(=O)Nc2ccc(C(=N)N)cc2)c(C(=O)O)c1 [substituted biphenyl derivative, 36an] | 1770 nM
CCc1ccc(-c2ccc(C(=O)NCC(C)C)cc2C(=O)O)c(C(=O)Nc2ccc(C(=N)N)cc2)c1 [substituted biphenyl derivative, 36c] | 5990 nM
CC(C)CNC(=O)c1ccc(-c2ccc(-c3nccs3)cc2C(=O)Nc2ccc(C(=N)N)cc2)c(C(=O)O)c1 [substituted biphenyl derivative, 36af] | 1470 nM
CC(C)CNC(=O)c1ccc(-c2ccc(-c3occc3CO)cc2C(=O)Nc2ccc(C(=N)N)cc2)c(C(=O)O)c1 [substituted biphenyl derivative, 36aq] | 770 nM
CC(C)CNC(=O)c1ccc(-c2ccccc2C(=O)Nc2ccc(C(=N)N)cc2)c(C(=O)O)c1 | 170 nM
CC(C)CNC(=O)c1ccc(-c2ccc(-c3sccc3CO)cc2C(=O)Nc2ccc(C(=N)N)cc2)c(C(=O)O)c1 [substituted biphenyl derivative, 36aj] | 4390 nM
CC(C)CNC(=O)c1ccc(-c2ccc(Cc3cccs3)cc2C(=O)Nc2ccc(C(=N)N)cc2)c(C(=O)O)c1 [substituted biphenyl derivative, 36ag] | 1510 nM
C=Cc1ccc(-c2ccc(C(=O)NCC(C)C)cc2C(=O)O)c(C(=O)Nc2ccc(C(=N)N)cc2)c1 [substituted biphenyl derivative, 36b] | 470 nM
CC(C)CNC(=O)c1ccc(-c2ccc(-c3ccco3)cc2C(=O)Nc2ccc(C(=N)N)cc2)c(C(=O)O)c1 [substituted biphenyl derivative, 36ab] | 370 nM
COc1ccc(-c2ccc(C(=O)NCC(C)C)cc2C(=O)O)c(C(=O)Nc2ccc(C(=N)N)cc2)c1 [substituted biphenyl derivative, 24] | 820 nM
CC(C)CNC(=O)c1ccc(-c2ccc(-c3ccsc3)cc2C(=O)Nc2ccc(C(=N)N)cc2)c(C(=O)O)c1 [substituted biphenyl derivative, 36aa] | 380 nM
CC(C)CNC(=O)c1ccc(-c2ccc(-c3ccoc3CO)cc2C(=O)Nc2ccc(C(=N)N)cc2)c(C(=O)O)c1 [substituted biphenyl derivative, 36ao] | 740 nM
CC(C)CNC(=O)c1ccc(-c2ccc(-c3ccoc3)cc2C(=O)Nc2ccc(C(=N)N)cc2)c(C(=O)O)c1 [substituted biphenyl derivative, 36ac] | 470 nM
CC(C)CNC(=O)c1ccc(-c2ccc(-c3cccn3C)cc2C(=O)Nc2ccc(C(=N)N)cc2)c(C(=O)O)c1 [substituted biphenyl derivative, 36ae] | 410 nM
